# Laboratory results from US9796700B2 (Celgene CAR LLC, priority 2013, dated 2017).
# Tests used:
# MEK1 activated ERK1 = MEK1 activated ERK1 (Homo sapiens (Human), UniProt P27361); test: Omnia continuous-read kinase assay for potency against MEK1 activated ERK1; format: biochemical; settings: MEK1 activated ERK1, WT, ATP at KM
# Outline: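 Apparent IC50 came from initial reaction slopes (RFU vs time) plotted against log inhibitor with a variable-slope fit. Reactions were started with ERK1 (4 nM final) added to 50 μM ATP, roughly at its appKM, and 10 μM Sox-conjugated ST17 peptide in 20 mM Tris pH 7.5, 5 mM MgCl2. Fluorescence was monitored every 71 seconds.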
# Erk1 = Erk1 (Homo sapiens (Human), UniProt P27361); test: Protein Mass Modification Assay (intact protein MALDI); format: binding
# Erk1, sequence (P27361 whole entry, looked up): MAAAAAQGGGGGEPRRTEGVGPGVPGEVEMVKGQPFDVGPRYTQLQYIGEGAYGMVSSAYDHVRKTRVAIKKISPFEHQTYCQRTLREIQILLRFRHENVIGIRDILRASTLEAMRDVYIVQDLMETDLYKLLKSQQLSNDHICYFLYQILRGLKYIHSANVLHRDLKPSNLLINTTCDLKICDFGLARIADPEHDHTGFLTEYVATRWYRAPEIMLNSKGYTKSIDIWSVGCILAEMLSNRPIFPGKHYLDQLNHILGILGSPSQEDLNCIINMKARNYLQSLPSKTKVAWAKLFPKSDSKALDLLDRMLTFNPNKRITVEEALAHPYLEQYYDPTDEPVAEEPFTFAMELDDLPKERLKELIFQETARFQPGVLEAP
# Outline: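 Percent covalent modification comes from the intact-protein MALDI centroid mass shift, treated versus control, divided by compound MW. Before analysis, human Erk1 was exposed to compound at 10-fold excess over protein for 60 min at room temperature.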
# MEK1 activated ERK1, sequence (P27361 whole entry): as the sequence (P27361 whole entry, looked up) above
SMILES,IC50 (MEK1 activated ERK1) [nM],ERK1 Mass Mod (%) (Erk1)
"C=CC(=O)Nc1cc(OC)ccc1Nc1nc(Nc2ccc(N3CCN(C(=O)OC(C)(C)C)CC3)cc2OC)ncc1Cl [Compound I-151, tert-butyl 4-(4-((4-((2-acrylamido-4-methoxyphenyl)amino)-5-chloropyrimidin-2-yl)amino)-3-methoxyphenyl)piperazine-1-carboxylate]",> 1000,F (provided a mass modification of 31-69%)
"C=CC(=O)Nc1ccccc1Nc1nc(Nc2ccc(N3CCN(C(C)=O)CC3)cc2OC)ncc1F [Compound I-153, N-(2-((2-((4-(4-acetylpiperazin-1-yl)-2-methoxyphenyl)amino)-5-fluoropyrimidin-4-yl)amino)phenyl)acrylamide]",> 1000,F (provided a mass modification of 31-69%)
"C=CC(=O)Nc1ccccc1Nc1ccnc(Nc2ccc(N3CCN(C(C)=O)CC3)cc2OC)n1 [Compound I-154, N-(2-((2-((4-(4-acetylpiperazin-1-yl)-2-methoxyphenyl)amino)pyrimidin-4-yl)amino)phenyl)acrylamide]",> 1000,G (proived a mass modification ≦30%)
"C=CC(=O)Nc1cc(OC)ccc1Nc1nc(Nc2ccc(-n3ccnc3)cc2C#N)ncc1Cl [Compound I-157, N-(2-((5-chloro-2-((2-cyano-4-(1H-imidazol-1-yl)phenyl)amino)pyrimidin-4-yl)amino)-5-methoxyphenyl)acrylamide]",> 1000,F (provided a mass modification of 31-69%)
"C=CC(=O)Nc1cc(OC)ccc1Nc1nc(Nc2ccc(N3CCC[C@H]3CO)cc2C(F)(F)F)ncc1Cl [Compound I-158, (S)—N-(2-((5-chloro-2-((4-(2-(hydroxymethyl)pyrrolidin-1-yl)-2-(trifluoromethyl)phenyl)amino)pyrimidin-4-yl)amino)-5-methoxyphenyl)acrylamide]",> 1000,F (provided a mass modification of 31-69%)
"C=CC(=O)Nc1cc(OC)ccc1Nc1nc(Nc2ccc(N3CCC[C@H]3CO)cc2OC)ncc1Cl [Compound I-159, (S)—N-(2-((5-chloro-2-((4-(2-(hydroxymethyl)pyrrolidin-1-yl)-2-methoxyphenyl)amino)pyrimidin-4-yl)amino)-5-methoxyphenyl)acrylamide]",> 1000,F (provided a mass modification of 31-69%)
"C=CC(=O)Nc1ccccc1Nc1nc(Nc2ccc(N3CCC[C@H]3CO)cc2C#N)ncc1Cl [Compound I-160, (S)—N-(2-((5-chloro-2-((2-cyano-4-(2-(hydroxymethyl)pyrrolidin-1-yl)phenyl)amino)pyrimidin-4-yl)amino)phenyl)acrylamide]",> 1000,G (proived a mass modification ≦30%)
"C=CC(=O)Nc1cc(OC)ccc1Nc1nc(Nc2ccc(N3CCNCC3)cc2C#N)ncc1Cl [Compound I-161, N-(2-((5-chloro-2-((2-cyano-4-(piperazin-1-yl)phenyl)amino)pyrimidin-4-yl)amino)-5-methoxyphenyl)acrylamide]",> 1000,G (proived a mass modification ≦30%)
"C=CC(=O)Nc1cc(OC)ccc1Nc1nc(Nc2ccc(N3CCNCC3)cc2OC)ncc1Cl [Compound I-162, N-(2-((5-chloro-2-((2-methoxy-4-(piperazin-1-yl)phenyl)amino)pyrimidin-4-yl)amino)-5-methoxyphenyl)acrylamide]",> 1000,E (provided a mass modification of ≧70%)
"C=CC(=O)Nc1cc(OC)ccc1Nc1nc(Nc2ccc(N3CC[C@H](O)C3)cc2C#N)ncc1Cl [Compound I-165, (S)—N-(2-((5-chloro-2-((2-cyano-4-(3-hydroxypyrrolidin-1-yl)phenyl)amino)pyrimidin-4-yl)amino)-5-methoxyphenyl)acrylamide]",> 1000,F (provided a mass modification of 31-69%)
"C=CC(=O)Nc1ccccc1Nc1nc(Nc2ccc(N(CCNC(=O)OC(C)(C)C)C(C)=O)cc2C(F)(F)F)ncc1Cl [Compound I-170, tert-butyl (2-(N-(4-((4-((2-acrylamidophenyl)amino)-5-chloropyrimidin-2-yl)amino)-3-(trifluoromethyl)phenyl)acetamido)ethyl)carbamate]",> 1000,E (provided a mass modification of ≧70%)
"C=CC(=O)Nc1ccccc1Nc1nc(Nc2ccc(N3CCC[C@@H]3CO)cc2C#N)ncc1Cl [Compound I-171, (R)—N-(2-((5-chloro-2-((2-cyano-4-(2-(hydroxymethyl)pyrrolidin-1-yl)phenyl)amino)pyrimidin-4-yl)amino)phenyl)acrylamide]",> 1000,E (provided a mass modification of ≧70%)
"C=CC(=O)Nc1ccccc1Nc1nc(Nc2ccc(N3CCC[C@H]3CO)cc2C#N)ncc1Cl [Compound I-172, (S)—N-(2-((5-chloro-2-((2-cyano-4-(2-(hydroxymethyl)pyrrolidin-1-yl)phenyl)amino)pyrimidin-4-yl)amino)phenyl)acrylamide]",> 1000,F (provided a mass modification of 31-69%)
"C=CC(=O)Nc1ccccc1Nc1nc(Nc2ccc(OCCOC)cc2OC)ncc1Cl [Compound I-182, N-(2-((5-chloro-2-((2-methoxy-4-(2-methoxyethoxy)phenyl)amino)pyrimidin-4-yl)amino)phenyl)acrylamide]",> 1000,E (provided a mass modification of ≧70%)
"C=CC(=O)Nc1ccccc1Nc1nc(Nc2ccc(NC(=O)OC)cc2OC)ncc1Cl [Compound I-184, methyl (4-((4-((2-acrylamidophenyl)amino)-5-chloropyrimidin-2-yl)amino)-3-methoxyphenyl)carbamate]",> 1000,E (provided a mass modification of ≧70%)
"C=CC(=O)NCc1ccccc1Nc1nc(Nc2cc(C(N)=O)ccc2C)ncc1Cl [Compound I-189, 3-((4-((2-(acrylamidomethyl)phenyl)amino)-5-chloropyrimidin-2-yl)amino)-4-methylbenzamide]",> 1000,G (proived a mass modification ≦30%)
"C=CC(=O)N[C@@H]1CCCC[C@H]1Nc1nc(Nc2cc(C(=O)NOC)ccc2C)ncc1Cl [Compound I-190, 3-((4-(((1R,2R)-2-acrylamidocyclohexyl)amino)-5-chloropyrimidin-2-yl)amino)-N-methoxy-4-methylbenzamide]",> 1000,F (provided a mass modification of 31-69%)
"C=CC(=O)N(C)c1ccccc1Nc1nc(Nc2cc(C(=O)NOCCO)ccc2C#N)ncc1Cl [Compound I-204, 3-((5-chloro-4-((2-(N-methylacrylamido)phenyl)amino)pyrimidin-2-yl)amino)-4-cyano-N-(2-hydroxyethoxy)benzamide]",> 1000,F (provided a mass modification of 31-69%)

# Other lines, results leading:
IC50 (MEK1 activated ERK1) [nM],ERK1 Mass Mod (%) (Erk1),SMILES
< 100,E (provided a mass modification of ≧70%),"C=CC(=O)Nc1ccccc1Nc1nc(Nc2cc(C(=O)NOC)ccc2C)ncc1Cl [Compound I-191, 3-((4-((2-acrylamidophenyl)amino)-5-chloropyrimidin-2-yl)amino)-N-methoxy-4-methylbenzamide]"
< 100,E (provided a mass modification of ≧70%),"C=CC(=O)Nc1ccccc1Nc1nc(Nc2cc(C(N)=O)ccc2C#N)ncc1Cl [Compound I-192, 3-((4-((2-acrylamidophenyl)amino)-5-chloropyrimidin-2-yl)amino)-4-cyanobenzamide]"
< 100,E (provided a mass modification of ≧70%),"C=CC(=O)Nc1ccccc1Nc1nc(Nc2cc(C(N)=O)ccc2CC)ncc1Cl [Compound I-193, 3-((4-((2-acrylamidophenyl)amino)-5-chloropyrimidin-2-yl)amino)-4-ethylbenzamide]"
> 1000,E (provided a mass modification of ≧70%),"C=CC(=O)N(C)c1ccccc1Nc1nc(Nc2cc(C(=O)NOC)ccc2C#N)ncc1Cl [Compound I-197, 3-((5-chloro-4-((2-(N-methylacrylamido)phenyl)amino)pyrimidin-2-yl)amino)-4-cyano-N-methoxybenzamide]"
> 1000,G (proived a mass modification ≦30%),"C=CC(=O)N[C@@H]1CCCC[C@@H]1Nc1nc(Nc2cc(C(N)=O)ccc2C)ncc1Cl [Compound I-199, 3-((4-(((1S,2R)-2-acrylamidocyclohexyl)amino)-5-chloropyrimidin-2-yl)amino)-4-methylbenzamide]"
> 1000,G (proived a mass modification ≦30%),"C=CC(=O)N[C@H]1CCCC[C@H]1Nc1nc(Nc2cc(C(N)=O)ccc2C)ncc1Cl [Compound I-200, 3-((4-(((1R,2S)-2-acrylamidocyclohexyl)amino)-5-chloropyrimidin-2-yl)amino)-4-methylbenzamide]"
> 1000,G (proived a mass modification ≦30%),"C=CC(=O)N[C@H]1CCCC[C@@H]1Nc1nc(Nc2cc(C(N)=O)ccc2C)ncc1Cl [Compound I-201, 3-((4-(((1S,2S)-2-acrylamidocyclohexyl)amino)-5-chloropyrimidin-2-yl)amino)-4-methylbenzamide]"
< 100,E (provided a mass modification of ≧70%),"C=CC(=O)Nc1cc(F)ccc1Nc1nc(Nc2cc(C(N)=O)ccc2OC)ncc1Cl [Compound I-208, 3-((4-((2-acrylamido-4-fluorophenyl)amino)-5-chloropyrimidin-2-yl)amino)-4-methoxybenzamide]"
> 1000,G (proived a mass modification ≦30%),"C=CC(=O)N[C@H]1CCC[C@@H]1Nc1nc(Nc2cc(C(N)=O)ccc2C)ncc1Cl [Compound I-215, 3-((4-(((1 S,2S)-2-acrylamidocyclopentyl)amino)-5-chloropyrimidin-2-yl)amino)-4-methylbenzamide]"
